Data from patent US7601736B2, “Pyridine derivatives, a process for their preparation and a pharmaceutical composition containing the same” (SK Chemicals Co., Ltd., priority 2003, dated 2009).

How the values were obtained:
TNF-α [1] = assay: Cytokine inhibitory activity in cells: LPS-induced TNF-α in RAW 264.7; assay type: cell-based, murine; conditions: for inhibition at 1 µM / inhibition at 10 µM / inhibition at 100 µM / inhibition at 1000 µM: Mus musculus, RAW264.7, read-out: TNF-α Inhibition Rate (%); for inhibition at 1 µM / inhibition at 10 µM / inhibition at 100 µM / inhibition at 1000 µM / TNF-α Inhibition Rate (%): RAW 264.7, LPS 1 μg/mL; for inhibitory activity in RAW 264.7 cell line on the production of TNF-α, in words: compared to the control compounds
Experimental: General reagents used were purchased from Sigma-Aldrich chem. Co. and cytokine inhibitory activities were tested as follows. Mediums and reagents used in cell culture were purchased from GIBCO BRL (USA), and mouse TNF-α ELISA kit was purchased from R&D system (USA). The apparatus used ELISA reader (Spectra max-Plus 384, Molecular Device, USA).
Murine macrophage cell line RAW 264.7 was kindly provided by Korean Tissue Culture Center (KTCC). The cell line was cultured in DMEM medium containing 10% FBS, in a cell culturing device at the condition of 37° C., 5% CO2. First, murine RAW 264.7 was cultured in DMEM medium containing 10% FBS for about 24 hours, and cells were planted 200 μL each in 96 well plates at the concentration of 5×10^5/mL and cultured for about 24 hours. Then, test compounds were treated at various concentrations and then reacted at 37° C. for about 1 hour, wherein 1 μg/mL of lipopolysaccharide (LPS) was added thereto and reacted at 37° C. for about 12 hours. The supernatant was recovered and the amount of murine TNF-α on the medium was quantitated using ELISA kit. Thalidomide was respectively used as a positive and a negative control to compare the activities and the results are shown in the following tables 4a -4c.

TNF-α [2] = assay: Cytokine inhibitory activity in animal model (LPS-treated SD rats), plasma TNF-α; assay type: in vivo, Sprague Dawley (SD) rats; conditions: for inhibition in vivo at 40 mg/kg: Rattus norvegicus, 2 h, read-out: TNF-α Inhibition Rate (Conc.); for inhibition in vivo at 40 mg/kg / TNF-α Inhibition Rate (Conc.): SD rats, oral, LPS, 40 mg/kg; for inhibitory activity on production of TNF-α compared to Indomethacin: rat model, in words
Experimental: Sprague Dawley (SD) rats with body weights of about 180 to about 200 g were fasted (free drinking) and then tested. Test compounds were administered orally at 40 mg/kg and then abdominally administered with LPS 1 μg/mL after 1 hour. After 2 hours, the rats were sacrificed and bloods were collected from abdominal vein, stored at room temperature for about 2 hours, and then centrifuged at 12,000 rpm for about 2 minutes. Thus produced plasma was respectively collected and its TNF-α in each plasma was quantitated using mouse TNF-α ELISA kit based on the amount of recombinant TNF-α in rats. The plate used was coated with anti-rat TNF-α monoclone IgG antibodies. Likewise, for the test of IL-1α, IL-1α in each plasma was quantitated using the above plasma and mouse IL-1α ELISA kit based on the amount of recombinant IL-1α in rats. The plate used was coated with anti-rat IL-1α monoclone IgG antibodies. Further, for the test of IL-6, IL-6 in each plasma was quantitated using the above plasma and mouse IL-6 ELISA kit based on the amount of recombinant IL-6 in rats. Further, for the test of INF-γ, INF-γ in each plasma was quantitated using the above plasma and mouse INF-γ ELISA kit based on the amount of recombinant INF-γ in rats. The plate used was coated with anti-rat INF-γ monoclone IgG antibodies. From the above tests, inhibitory rates on the expression of each cytokine were obtained and they were compared to that of Indomethacin.

[3] = tested on: ICR (Institute of Cancer Research) mouse; assay: Analgesic test (acetic acid-induced stretchings); assay type: in vivo; conditions: oral, 100 mg/kg
Experimental: Male ICR (Institute of Cancer Research) mouse with body weight of about 20 to 30 g were tested wherein each group had 6 mouses. After 1 hour of the oral administration of a test compound, acetic acid (in distilled water) was abdominally administered. For the duration of 10 minutes, the animals were observed regarding the number of stretchings and the number was compared with that of placebo treated group and the result is shown in the following table 7.

[4] = tested on: ICR (Institute of Cancer Research) mouse; assay: Croton oil-induced ear edema test; assay type: in vivo; conditions: oral, 100 mg/kg
Experimental: (§1) Male ICR (Institute of Cancer Research) mouse with body weight of about 20 to 30 g were tested wherein each group had 6 mouses. After 1 hour of the oral administration of a test compound, Croton oil (in acetone solution) was coated on one of the ears. After 4 hours, the thickness of the swollen ear in treated group was compared with the other unswollen ear and obtained the average increase rate in thickness of ear by the treatment.

[5] = tested on: ICR (Institute of Cancer Research) mouse; assay: Arachidonic acid-induced ear edema test; assay type: in vivo; conditions: oral, 100 mg/kg
Experimental: as §1, with “Arachidonic acid” for “Croton oil”, “1 hour,” for “4 hours,”

SMILES	inhibition at 1 µM (TNF-α [1]; test conc. 1 μM) [%]	inhibition at 10 µM (TNF-α [1]; test conc. 10 μM) [%]	inhibition at 100 µM (TNF-α [1]; test conc. 100 μM) [%]	inhibition at 1000 µM (TNF-α [1]; test conc. 1 mM) [%]	inhibitory activity in RAW 264.7 cell line on the production of TNF-α, in words (TNF-α [1])	inhibition in vivo at 40 mg/kg (TNF-α [2]) [%]	inhibitory activity on production of TNF-α compared to Indomethacin (TNF-α [2])	TNF-α Inhibition Rate (%) (TNF-α [1]; test conc. 1 μM)	TNF-α Inhibition Rate (%) (TNF-α [1]; test conc. 10 μM)	TNF-α Inhibition Rate (%) (TNF-α [1]; test conc. 100 μM)	TNF-α Inhibition Rate (%) (TNF-α [1]; test conc. 1 mM)	TNF-α Inhibition Rate (Conc.) (TNF-α [2])	Inhibition Rate (%) [3] [%]	Inhibition Rate (%) [4] [%]	Inhibition Rate (%) [5] [%]
COc1nc(-c2ccccc2)cc2c1C(=O)OCC2 [Ex. 79, 8-methoxy-6-phenyl-3,4-dihydro-pyrano[3,4-c]pyridine-1-on]	76	8	94	100	superiorities over to the control compounds	78	1.5 or 2 times greater	–	–	–	–	–	–	–	–
Cc1nc(-c2ccccc2)cc2c1C(=O)OCC2 [Ex. 77, 8-methyl-6-phenyl-3,4-dihydro-pyrano[3,4-c]pyridine-1-on]	68	76	89	100	superiorities over to the control compounds	66	–	–	–	–	–	–	–	–	–
CC(=O)Oc1nc(-c2ccccc2)cc2c1C(=O)OCC2 [Ex. 78, 1-oxo-6phenyl-3,4-dihydro-1H-pyrano[3,4-c]pyridine-8-yl acetic ester]	–	–	–	–	superiorities over to the control compounds	–	–	79	85	98	100	68% (40 mg/kg)	–	–	–
Cc1cc2c(c(N)n1)C(=O)OCC2 [Ex. 53, 8-amino-6-methyl-3,4-dihydro-pyrano[3,4-c]pyridine-1-on]	85	100	100	100	superiorities over to the control compounds	53	–	–	–	–	–	–	–	–	–
CC(=O)Oc1nc(C)cc2c1C(=O)OCC2 [Ex. 21, 6-methyl-1-oxo-3,4-dihydro-1H-pyrano[3,4-c]pyridine-8-yl acetic ester]	–	–	–	–	–	–	1.5 or 2 times greater	9	15	34	77	93% (40 mg/kg)	–	–	–
Cc1cc2c(c(N3CCCCC3)n1)C(=O)OCC2 [Ex. 32, 6-methyl-8-piperidine-1-yl-3,4-dihydro-pyrano[3,4-c]pyridine-1-on]	69	78	89	100	–	74	1.5 or 2 times greater	–	–	–	–	–	–	–	–
Cc1ccc(-c2cc(C(F)(F)F)nn2-c2ccc(S(N)(=O)=O)cc2)cc1 [Celecoxib, reference compound]	–	–	–	–	–	–	–	–	–	–	–	–	81	35	33
Cc1cc2c(c(N3CCOCC3)n1)C(=O)OCC2 [Ex. 33, 6-methyl-8-morpholine-4-yl-3,4-dihydro-pyrano[3,4-c]pyridine-1-on]	–	9	18	29	–	90	1.5 or 2 times greater	–	–	–	–	–	–	–	–
Cc1cc2c(c(-c3ccc(F)cc3)n1)C(=O)OCC2 [Ex. 30, 8-(4-fluorophenyl)-6-methyl-3,4-dihydro-pyrano[3,4-c]pyridine-1-on]	100	100	100	100	superiorities over to the control compounds	79	1.5 or 2 times greater	–	–	–	–	–	–	–	–
O=C1c2cnccc2CCN1Cc1ccccc1 [Ex. 117, 2-benzyl-3,4-dihydro-2H-[2,7]naphtyridine-1-on]	–	–	–	–	–	–	–	10	18	29	35	69% (40 mg/kg)	–	–	–
COc1ccc(CN2CCc3ccncc3C2=O)cc1 [Ex. 115, 2-(4methoxy-benzyl)-3,4-dihydro-2H-[2,7]naphtyridine-1-on]	–	–	–	–	–	–	–	50	59	65	78	43% (40 mg/kg)	–	–	–
